Here are results for four compounds from US4428937A, “Antibacterial agents” (Beecham Group Limited, priority 1975, dated 1984).

Data set [1] concerns Staphylococcus aureus Russell. Nature of the data set: In-vitro synergy: MIC of ampicillin in presence of sodium deoxyclavulanate. It is filed as cell-based. The text has this: (§1) The antibacterial and synergistic properties of sodium deoxyclavulanate are illustrated by the following in-vitro results: | Minimum Inhibitory Concentration | (μg/ml) of Ampicillin in Presence | of Various Concentrations of | Sodium Deoxyclavulanate (μg/ml) |Organism 0 1 5 20

In another data set the test system is Klebsiella aerogenes E70. The data set is described as above. It is filed as cell-based.
From the text: as §1

For data set [2] the following is noted: prior disclosures; cited from earlier work.
Another data set has as its system β-lactamase. Conditions: prior disclosures; cited from earlier work.
A short description of data set [3]: Overt toxic effects in mice, intraperitoneal. It is filed as in vivo. Conditions: intra peritoneally, 500 mg/kg.
Another data set relates to Staph. aureus Russell. The data set can be described thus: In-vitro minimum inhibitory concentration. It is filed as cell-based. Conditions: Staphylococcus aureus. An excerpt: (§2) The antibacterial and synergistic properties of sodium deoxyclavulanate are illustrated by the following in-vitro results: | Minimum Inhibitory | Concentration of Sodium | Organism Deoxyclavulanate (μg/ml)

Data set [4] deals with Salmonella typhimurium CT10. The data set can be described thus: In-vitro minimum inhibitory concentration. It is filed as cell-based. The note with it: Salmonella enterica.
From the text: as §2

The next data set concerns Klebsiella aerogenes A. The data set can be described thus: In-vitro minimum inhibitory concentration. It is filed as cell-based.
From the text: as §2

A further data set concerns Bacillus subtilis A. Nature of the data set: In-vitro minimum inhibitory concentration. It is filed as cell-based.
From the text: as §2

Another data set deals with Enterobacter cloacae N1. Nature of the data set: In-vitro minimum inhibitory concentration. It is filed as cell-based.
From the text: as §2

Data set [5] deals with Serratia marcescens US 39. Nature of the data set: In-vitro minimum inhibitory concentration. Conditions: US39. It is filed as cell-based.
From the text: as §2

For another data set, the system named is Staph. aureus Oxford. The data set can be described thus: In-vitro minimum inhibitory concentration. It is filed as cell-based. Conditions: Staphylococcus aureus.
From the text: as §2

The next data set relates to Proteus mirabilis C 977. Nature of the data set: In-vitro minimum inhibitory concentration. It is filed as cell-based. Conditions: C977.
From the text: as §2

For the next data set, the system named is Escherichia coli 10418. Nature of the data set: In-vitro minimum inhibitory concentration. It is filed as cell-based.
From the text: as §2

Another data set has as its system Pseudomonas aeruginosa A. Nature of the data set: In-vitro minimum inhibitory concentration. It is filed as cell-based.
From the text: as §2

[6] abbreviates: sodium deoxyclavulanate 0 μg/ml, read-out: Minimum Inhibitory Concentration of Ampicillin.
Setting [7] is: sodium deoxyclavulanate 1 μg/ml.
The mark [8] stands for this setting: sodium deoxyclavulanate 5 μg/ml.

The structures appear in SMILES notation. A value given as a limit tells only on which side of the number the result lay.

`CC1(C)S[C@@H]2[C@H](NC(=O)[C@H](N)c3ccccc3)C(=O)N2[C@H]1C(=O)O` [Ampicillin]: the values for the MIC (in data set [1] (setting [6]); in the data set with Klebsiella aerogenes E70 (setting [6])) were 500 µg/mL and above 500 µg/mL, respectively. Further, the “Minimum Inhibitory Concentration of Ampicillin in Presence of Sodium Deoxyclavulanate” value in data set [1] (setting [7]) was 0.8 µg/mL; in [1] (setting [8]) it was 0.08 µg/mL; in the data set with Klebsiella aerogenes E70 (setting [7]), 0.8 µg/mL; in the data set on Klebsiella aerogenes E70 (setting [8]), 0.2 to 0.4 µg/mL.
As for `O=C(O)[C@H]1/C(=C\CO)O[C@@H]2CC(=O)N21` [Isoclavulanic acid, isoclavulanic acid], the anti-bacterial activity result in data set [2] is listed as “also have anti-bacterial”. In addition, the β-lactamase inhibitory activity entry in the data set with β-lactamase is recorded as “β-lactamase inhibitory activity”.
Regarding `C/C=C1\O[C@@H]2CC(=O)N2[C@H]1C(=O)O` [Sodium deoxyclavulanate, Sodium Deoxyclavulanate], in data set [3], the overt toxic effects result is “did not appear to produce any overt toxic effects”. In addition, the MIC came to 31 µg/mL in the data set on Staph. aureus Russell; 125 µg/mL in data set [4]; 62.5 µg/mL in the data set with Klebsiella aerogenes A; 62.5 µg/mL in the data set on Bacillus subtilis A; 125 µg/mL in the data set on Enterobacter cloacae N1; 125 µg/mL in data set [5]. Also, the MIC with Staph. aureus Oxford turned out to be 15.6 µg/mL; in the data set with Proteus mirabilis C 977, 125 µg/mL; in the data set on Escherichia coli 10418 it was 62.5 µg/mL; in the data set with Pseudomonas aeruginosa A it was 1000 µg/mL. Moreover, the “Inhibition by sodium deoxyclavulanate alone” value in data set [1] (sodium deoxyclavulanate 20 μg/ml) is “Inhibition produced by sodium deoxyclavulanate alone”.
As for `O=C(O)[C@H]1/C(=C/CO)O[C@@H]2CC(=O)N21` [clavulanic acid], in [2], the anti-bacterial activity entry is on record as “possess anti-bacterial”. The β-lactamase inhibitory activity entry in the data set with β-lactamase is on record as “β-lactamase inhibitory activity”.
